Data published in ChEMBL document CHEMBL1201862, “PubChem BioAssay data set” (2004).
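A five-concentration, 48-hour dose response in 96-well plates underlies each endpoint, interpolated linearly between surrounding concentrations. The concentration for 50% growth inhibition is given as GI50.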 The source made the active and inactive calls. Cut-off read from the data, not from the text of the source: active = GI50 up to about 1.1 µM and inactive = higher.

Assays:
Test in all cases: growth of human tumour cells (NCI), 48 h
[1] = system: SN12C
[2] = system: PC-3
[3] = system: KM-20L2
[4] = system: M14
[5] = system: COLO 205
[6] = system: HT-29
[7] = system: NCI-H226
[8] = system: OVCAR-8
[9] = system: ACHN
[10] = system: HCC 2998
[11] = system: K562
[12] = system: HCT-116
[13] = system: HCT-15
[14] = system: IGROV-1
[15] = system: MCF7
[16] = system: DMS-114
[17] = system: OVCAR-4
[18] = system: CCRF-CEM
[19] = system: DU-145
[20] = system: LOX IMVI
[21] = system: RPMI-8226
[22] = system: SF-268
[23] = system: NCI-H460
[24] = system: Hs-578T
[25] = system: A549
[26] = system: U-251
[27] = system: TK-10
[28] = system: KM12
[29] = system: SNB-75
[30] = system: CAKI-1
[31] = system: NCI-H522
[32] = system: MDA-MB-435
[33] = system: UO-31
[34] = system: MDA-MB-231
[35] = system: 786-0
[36] = system: SNB-78
[37] = system: RXF 393
[38] = system: UACC-257
[39] = system: SK-MEL-5
[40] = system: OVCAR-5
[41] = system: SW-620
[42] = system: OVCAR-3
[43] = system: Malme-3M
[44] = system: HOP-92
[45] = system: SF-539
[46] = system: UACC-62
[47] = system: MOLT-4
[48] = system: HL-60
[49] = system: SK-OV-3
[50] = system: SF-295
[51] = system: SK-MEL-2
[52] = system: HOP-62
[53] = system: NCI/ADR-RES
[54] = system: NCI-H23
[55] = system: M19-MEL
[56] = system: DMS-273
[57] = system: XF498
[58] = system: SNB-19
[59] = system: SR
[60] = system: SK-MEL-28
[61] = system: A498
[62] = system: EKVX
[63] = system: LXFL 529
[64] = system: DLD-1

CC(=O)OC12COC1CC(O)C1(C)C(=O)C(O)C3=C(C)C(O)CC(O)(C(OC(=O)c4ccccc4)C21)C3(C)C (centres undefined)
GI50 [1]: 4.94 µM (inactive)
GI50 [2]: 3.03 µM (inactive)
GI50 [3]: 1.41 µM (inactive)
GI50 [4]: 5.94 µM (inactive)
GI50 [5]: 1.14 µM (inactive)
GI50 [6]: 1.31 µM (inactive)
GI50 [7]: 6.01 µM (inactive)
GI50 [8]: 6.98 µM (inactive)
GI50 [9]: 90.2 µM (inactive)
GI50 [10]: 4.08 µM (inactive)
GI50 [11]: 1.58 µM (inactive)
GI50 [12]: 1.67 µM (inactive)
GI50 [13]: > 100 µM
GI50 [14]: 7.23 µM (inactive)
GI50 [15]: 1.68 µM (inactive)
GI50 [16]: 6.97 µM (inactive)
GI50 [17]: > 100 µM (inactive)
GI50 [18]: 3.8 µM (inactive)
GI50 [19]: 8.43 µM (inactive)
GI50 [20]: 1.82 µM (inactive)
GI50 [21]: 1.25 µM (inactive)
GI50 [22]: 3.41 µM (inactive)
GI50 [23]: 2.92 µM (inactive)
GI50 [24]: 0.778 µM (active)
GI50 [25]: 7.33 µM (inactive)
GI50 [26]: 0.65 µM (active)
GI50 [27]: > 74 µM (inactive)
GI50 [28]: 0.839 µM (active)
GI50 [29]: 1.75 µM (inactive)
GI50 [30]: > 96.2 µM (inactive)
GI50 [31]: 0.638 µM (active)
GI50 [32]: 0.408 µM (active)
GI50 [33]: 67.1 µM (inactive)
GI50 [34]: 7.91 µM (inactive)
GI50 [35]: 13.4 µM (inactive)
GI50 [36]: > 100 µM (inactive)
GI50 [37]: > 65.6 µM (inactive)
GI50 [38]: 5 µM (inactive)
GI50 [39]: 3.44 µM (inactive)
GI50 [40]: 3.94 µM (inactive)
GI50 [41]: 0.989 µM (active)
GI50 [42]: 2.55 µM (inactive)
GI50 [43]: 3.78 µM (inactive)
GI50 [44]: > 100 µM (inactive)
GI50 [45]: 1.16 µM (inactive)
GI50 [46]: > 100 µM (inactive)
GI50 [47]: 6.7 µM (inactive)
GI50 [48]: 2.52 µM (inactive)
GI50 [49]: 2.31 µM (inactive)
GI50 [50]: 26.3 µM (inactive)
GI50 [51]: 1.55 µM (inactive)
GI50 [52]: 16.6 µM (inactive)
GI50 [53]: > 100 µM (inactive)
GI50 [54]: 3.36 µM (inactive)
GI50 [55]: 7.67 µM (inactive)
GI50 [56]: 0.731 µM (active)
GI50 [57]: 2.36 µM (inactive)
GI50 [58]: 5.31 µM (inactive)
GI50 [59]: 5.12 µM (inactive)
GI50 [60]: 3.38 µM (inactive)
GI50 [61]: > 100 µM (inactive)
GI50 [62]: > 86.5 µM (inactive)

Cn1cc2ccccc2c1-c1nc(F)nc(F)n1
GI50 [1]: > 100 µM (inactive)
GI50 [3]: > 100 µM (inactive)
GI50 [4]: > 100 µM (inactive)
GI50 [5]: > 100 µM (inactive)
GI50 [6]: > 100 µM (inactive)
GI50 [7]: > 100 µM (inactive)
GI50 [9]: > 100 µM (inactive)
GI50 [10]: > 100 µM (inactive)
GI50 [11]: > 100 µM (inactive)
GI50 [12]: > 100 µM (inactive)
GI50 [13]: > 100 µM
GI50 [14]: > 100 µM (inactive)
GI50 [16]: > 100 µM (inactive)
GI50 [17]: > 100 µM (inactive)
GI50 [18]: 97.9 µM (inactive)
GI50 [20]: > 100 µM (inactive)
GI50 [21]: 33 µM (inactive)
GI50 [22]: > 100 µM (inactive)
GI50 [23]: > 100 µM (inactive)
GI50 [25]: > 100 µM (inactive)
GI50 [26]: > 100 µM (inactive)
GI50 [27]: > 100 µM (inactive)
GI50 [28]: 63.5 µM (inactive)
GI50 [29]: 92.3 µM (inactive)
GI50 [30]: > 100 µM (inactive)
GI50 [31]: > 100 µM (inactive)
GI50 [33]: > 100 µM (inactive)
GI50 [35]: > 100 µM (inactive)
GI50 [36]: > 100 µM (inactive)
GI50 [37]: > 100 µM (inactive)
GI50 [63]: > 100 µM (inactive)
GI50 [39]: > 100 µM (inactive)
GI50 [40]: > 100 µM (inactive)
GI50 [41]: > 100 µM (inactive)
GI50 [42]: > 100 µM (inactive)
GI50 [43]: > 100 µM (inactive)
GI50 [44]: > 100 µM (inactive)
GI50 [45]: > 100 µM (inactive)
GI50 [47]: 55 µM (inactive)
GI50 [48]: 45.5 µM (inactive)
GI50 [49]: > 100 µM (inactive)
GI50 [50]: > 100 µM (inactive)
GI50 [51]: > 100 µM (inactive)
GI50 [52]: > 100 µM (inactive)
GI50 [54]: > 100 µM (inactive)
GI50 [55]: > 100 µM (inactive)
GI50 [56]: > 100 µM (inactive)
GI50 [57]: 23.9 µM (inactive)
GI50 [58]: > 100 µM (inactive)
GI50 [59]: 41.6 µM (inactive)
GI50 [60]: > 100 µM (inactive)
GI50 [61]: > 100 µM (inactive)
GI50 [62]: > 100 µM (inactive)
GI50 [64]: > 100 µM (inactive)

CC1CCCC2(O1)OC1CC(=O)OC1C1=C2C(=O)c2ccccc2C1=O (centres undefined)
GI50 [1]: 2.18 µM (inactive)
GI50 [3]: 3.98 µM (inactive)
GI50 [4]: 2.79 µM (inactive)
GI50 [5]: 2.02 µM (inactive)
GI50 [6]: 2.42 µM (inactive)
GI50 [7]: 1.3 µM (inactive)
GI50 [8]: 2.51 µM (inactive)
GI50 [9]: 4.39 µM (inactive)
GI50 [10]: 2.37 µM (inactive)
GI50 [11]: 0.63 µM (active)
GI50 [13]: 2.8 µM
GI50 [14]: 2.65 µM (inactive)
GI50 [16]: 1.75 µM (inactive)
GI50 [17]: 1.86 µM (inactive)
GI50 [18]: 1.57 µM (inactive)
GI50 [20]: 2.64 µM (inactive)
GI50 [21]: 1.22 µM (inactive)
GI50 [22]: 4.02 µM (inactive)
GI50 [23]: 25.9 µM (inactive)
GI50 [25]: 16.9 µM (inactive)
GI50 [26]: 18.2 µM (inactive)
GI50 [27]: 9.12 µM (inactive)
GI50 [28]: 12.1 µM (inactive)
GI50 [29]: 11.2 µM (inactive)
GI50 [30]: 2.84 µM (inactive)
GI50 [31]: 1.6 µM (inactive)
GI50 [33]: 2.13 µM (inactive)
GI50 [35]: 2.14 µM (inactive)
GI50 [36]: 2.05 µM (inactive)
GI50 [37]: 2.13 µM (inactive)
GI50 [38]: 1.81 µM (inactive)
GI50 [63]: 1.4 µM (inactive)
GI50 [39]: 2.06 µM (inactive)
GI50 [40]: 19.9 µM (inactive)
GI50 [41]: 1.67 µM (inactive)
GI50 [42]: 2.72 µM (inactive)
GI50 [43]: 2.45 µM (inactive)
GI50 [45]: 5.81 µM (inactive)
GI50 [46]: 2.25 µM (inactive)
GI50 [47]: 1.58 µM (inactive)
GI50 [48]: 1.39 µM (inactive)
GI50 [49]: 16.4 µM (inactive)
GI50 [50]: 17.6 µM (inactive)
GI50 [51]: 2.33 µM (inactive)
GI50 [52]: 16.4 µM (inactive)
GI50 [54]: 5.13 µM (inactive)
GI50 [55]: 2.72 µM (inactive)
GI50 [56]: 1.8 µM (inactive)
GI50 [57]: 2.72 µM (inactive)
GI50 [58]: 15.6 µM (inactive)
GI50 [60]: 2.14 µM (inactive)
GI50 [61]: 17.7 µM (inactive)
GI50 [62]: 3.87 µM (inactive)
